Experiment: Hot stage polarized light microscopy (HSPLM)
Type: physicochemical
Settings: heat only, 130° C. or 160° C., FIG. 3
Protocol: Hot stage polarized light microscopy (HSPLM) and polarized light microscopy (PLM) were used to determine amorphous nature and visual interactions between excipients when melting. Samples were prepared by lightly spreading physical mixtures of the two compositions onto a glass slide. An Olympus BX60 microscope (Olympus Corp., Center Valley, Pa.) with Insight QE camera (Diagnostic Instruments, Inc., Sterling Heights, Mich.) was used for visual observation. […] Images were captured using Spot Advance Software (Diagnostic Instruments, Inc.).

dissolving of BI-667 in HPMCAS-HMP when no mixing was applied: not dissolve
SMILES: CS(=O)(=O)c1cc(C2(NC(=O)c3cncc4c3cnn4-c3ccc(F)cc3)CC2)ccn1 [BI-667]

From patent US20230167181A1, “PHARMACEUTICAL COMPOSITIONS AND METHODS OF MANUFACTURE USING THERMALLY CONDUCTIVE EXCIPIENTS” (BOARD OF REGENTS, THE UNIVERSITY OF TEXAS SYSTEM, priority 2020, published 2023)
